According to patent US6737383B1, “Herbicidal oxadiazolidines” (priority 1999, dated 2004):

How the values were obtained:
[1] = system: cocklebur; experiment: Test B pre/postemergence cocklebur; format: in vivo, Xanthium strumarium
Outline: (§1)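 Response is a visual 0-to-10 score relative to untreated plants, where 0 means no effect and 10 means complete control, taken twelve to sixteen days after application. Treatments went onto soil at planting and onto foliage of 1- to 4-leaf plants, using a surfactant-containing non-phytotoxic solvent.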

[2] = system: rape; experiment: Test B pre/postemergence rape; format: in vivo, Brassica napus
Outline: as §1

[3] = system: crabgrass; experiment: Test B pre/postemergence crabgrass; format: in vivo, Digitaria sanguinalis
Outline: as §1

[4] = system: corn; experiment: Test B pre/postemergence corn; format: in vivo, Zea mays
Outline: as §1

[5] = system: pigweed; experiment: Test B pre/postemergence pigweed; format: in vivo, Amaranthus retroflexus
Outline: as §1

[6] = system: bamyardgrass; experiment: Test B flood test barnyardgrass; format: in vivo, Echinochloa crus-galli
Outline: (§2)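 Flood test on plants grown to the 2-leaf stage; treated plants kept in greenhouse twelve to sixteen days, then visually rated against controls on a 0 (no effect) to 10 (complete control) scale.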

[7] = system: duck salad; experiment: Test B flood test duck salad; format: in vivo, Heteranthera limosa
Outline: as §2

[8] = system: purple nutsedge; experiment: Test B pre/postemergence purple nutsedge; format: in vivo, Cyperus rotundus
Outline: as §1

[9] = system: rice; experiment: Test B flood test rice; format: in vivo, Oryza sativa
Outline: as §2

[10] = system: sugar beet; experiment: Test B pre/postemergence sugar beet; format: in vivo, Beta vulgaris
Outline: as §1

[11] = system: giant foxtail; experiment: Test B pre/postemergence giant foxtail; format: in vivo, Setaria faberii
Outline: as §1

[12] = system: morningglory; experiment: Test B pre/postemergence morningglory; format: in vivo, Ipomoea hederacea
Outline: as §1

[13] = system: surinam grass; experiment: Test B pre/postemergence surinam grass; format: in vivo, Brachiaria decumbens
Outline: as §1

[14] = system: smallflower flatsedge; experiment: Test B flood test smallflower flatsedge; format: in vivo, Cyperus difformis
Outline: as §2

[15] = system: wheat; experiment: Test B pre/postemergence wheat; format: in vivo, Triticum aestivum
Outline: as §1

[16] = system: wild oat; experiment: Test B pre/postemergence wild oat; format: in vivo, Avena fatua
Outline: as §1

[17] = Preemergence, Rate 62 g/ha, scale of 0 to 10 where 0 is no effect and 10 is complete control
[18] = Preemergence, Rate 125 g/ha, 0 is no effect, 10 is complete control
[19] = Preemergence, Rate 250 g/ha, scale 0 to 10, 0 is no effect, 10 is complete control
[20] = Preemergence, Rate 500 g/ha, scale of 0 to 10 where 0 is no effect and 10 is complete control
[21] = Rate 62 g/ha, Postemergence, scale of 0 to 10 where 0 is no effect and 10 is complete control
[22] = Rate 125 g/ha, Postemergence, scale 0 to 10
[23] = Rate 500 g/ha, Postemergence, scale 0 to 10
[24] = Rate 62 g/ha, headed Pre-emergence (flood test species), scale 0 to 10 (0 no effect, 10 complete control)
[25] = Rate 125 g/ha, Pre-emergence, flood test species, scale 0 to 10 where 0 is no effect and 10 is complete control
[26] = Rate 250 g/ha, Pre-emergence, flood-test species, scale 0 to 10, 0 is no effect, 10 is complete control
[27] = Rate 500 g/ha, headed Pre-emergence (flood test species), scale 0 to 10 (0 no effect, 10 complete control)

CC(C)N(C(=O)n1oc(=O)n(-c2ccc(OC(F)(F)F)cc2)c1=O)c1ccc(F)cc1 [Compound 202]
Cocklebur plant response rating [1, 17]: 0
Cocklebur plant response rating (0 to 10 scale) [1, 18]: 0
Cocklebur plant response rating [1, 19]: 0
Plant response rating, Cocklebur [1, 20]: 0
Cocklebur plant response rating [1, 21]: 0
Cocklebur plant response rating [1, 22]: 0
Plant response rating (0 to 10; 0 is no effect, 10 is complete control), Cocklebur ([1]; Rate 250 g/ha, Postemergence): 2
Cocklebur plant response rating [1, 23]: 2
Rape plant response rating [2, 17]: 0
Rape plant response rating (0 to 10 scale) [2, 18]: 0
Rape plant response rating [2, 19]: 0
Plant response rating, Rape [2, 20]: 0
Rape plant response rating [2, 21]: 1
Rape plant response rating [2, 22]: 1
Plant response rating (0 to 10; 0 is no effect, 10 is complete control), Rape ([2]; Rate 250 g/ha, Postemergence): 1
Rape plant response rating [2, 23]: 4
Crabgrass plant response rating [3, 17]: 3
Crabgrass plant response rating (0 to 10 scale) [3, 18]: 4
Crabgrass plant response rating [3, 19]: 6
Plant response rating, Crabgrass [3, 20]: 9
Crabgrass plant response rating [3, 21]: 0
Crabgrass plant response rating [3, 22]: 0
Plant response rating (0 to 10; 0 is no effect, 10 is complete control), Crabgrass ([3]; Rate 250 g/ha, Postemergence): 1
Crabgrass plant response rating [3, 23]: 4
Corn plant response rating [4, 17]: 0
Corn plant response rating (0 to 10 scale) [4, 18]: 0
Corn plant response rating [4, 19]: 0
Plant response rating, Corn [4, 20]: 0
Corn plant response rating [4, 21]: 0
Corn plant response rating [4, 22]: 0
Plant response rating (0 to 10; 0 is no effect, 10 is complete control), Corn ([4]; Rate 250 g/ha, Postemergence): 0
Corn plant response rating [4, 23]: 0
Redroot pigweed plant response rating [5, 17]: 0
Redroot pigweed plant response rating (0 to 10 scale) [5, 18]: 0
Redroot pigweed plant response rating [5, 19]: 8
Plant response rating, Redroot pigweed [5, 20]: 3
Redroot pigweed plant response rating [5, 21]: 3
Redroot pigweed plant response rating [5, 22]: 4
Plant response rating (0 to 10; 0 is no effect, 10 is complete control), Redroot pigweed ([5]; Rate 250 g/ha, Postemergence): 6
Redroot pigweed plant response rating [5, 23]: 7
Barnyardgrass plant response rating [6, 24]: 0
Barnyardgrass plant response rating [6, 25]: 0
Barnyardgrass plant response rating [6, 26]: 0
Plant response rating, Barnyardgrass [6, 27]: 0
Ducksalad plant response rating [7, 24]: 0
Ducksalad plant response rating [7, 25]: 0
Ducksalad plant response rating [7, 26]: 0
Plant response rating, Ducksalad [7, 27]: 0
Nutsedge plant response rating [8, 17]: 0
Nutsedge plant response rating [8, 21]: 0
Nutsedge plant response rating [8, 22]: 0
Plant response rating (0 to 10; 0 is no effect, 10 is complete control), Nutsedge ([8]; Rate 250 g/ha, Postemergence): 0
Nutsedge plant response rating [8, 23]: 0
Rice plant response rating [9, 24]: 0
Rice plant response rating [9, 25]: 0
Rice plant response rating [9, 26]: 0
Plant response rating, Rice [9, 27]: 0
Sugarbeets plant response rating [10, 17]: 0
Sugarbeets plant response rating (0 to 10 scale) [10, 18]: 0
Sugarbeets plant response rating [10, 19]: 3
Plant response rating, Sugarbeets [10, 20]: 1
Sugarbeets plant response rating [10, 21]: 0
Sugarbeets plant response rating [10, 22]: 3
Plant response rating (0 to 10; 0 is no effect, 10 is complete control), Sugarbeets ([10]; Rate 250 g/ha, Postemergence): 4
Sugarbeets plant response rating [10, 23]: 4
Giant foxtail plant response rating [11, 17]: 2
Giant foxtail plant response rating (0 to 10 scale) [11, 18]: 6
Giant foxtail plant response rating [11, 19]: 7
Plant response rating, Giant foxtail [11, 20]: 10
Giant foxtail plant response rating [11, 21]: 0
Giant foxtail plant response rating [11, 22]: 0
Plant response rating (0 to 10; 0 is no effect, 10 is complete control), Giant foxtail ([11]; Rate 250 g/ha, Postemergence): 0
Giant foxtail plant response rating [11, 23]: 2
Morningglory plant response rating [12, 17]: 0
Morningglory plant response rating (0 to 10 scale) [12, 18]: 0
Morningglory plant response rating [12, 19]: 0
Plant response rating, Morningglory [12, 20]: 1
Morningglory plant response rating [12, 21]: 2
Morningglory plant response rating [12, 22]: 5
Plant response rating (0 to 10; 0 is no effect, 10 is complete control), Morningglory ([12]; Rate 250 g/ha, Postemergence): 8
Morningglory plant response rating [12, 23]: 9
B. signalgrass plant response rating [13, 17]: 0
B. signalgrass plant response rating (0 to 10 scale) [13, 18]: 0
B. signalgrass plant response rating [13, 19]: 0
Plant response rating, B. signalgrass [13, 20]: 0
B. signalgrass plant response rating [13, 21]: 0
B. signalgrass plant response rating ([13]; Rate 125 g/ha, Postemergence, scale 0 (no effect) to 10 (complete control)): 0
Plant response rating, B. signalgrass ([13]; Rate 250 g/ha, Postemergence, scale 0 to 10, 0 is no effect, 10 is complete control): 0
B. signalgrass plant response rating ([13]; Rate 500 g/ha, Postemergence, scale 0 to 10, 0 no effect, 10 complete control): 0
S. Flatsedge plant response rating [14, 24]: 0
S. Flatsedge plant response rating [14, 25]: 0
S. Flatsedge plant response rating [14, 26]: 0
S. Flatsedge plant response rating ([14]; Rate 500 g/ha, Pre-emergence, flood test species, scale 0 to 10 (0 no effect, 10 complete control)): 0
Wheat plant response rating [15, 17]: 0
Wheat plant response rating [15, 19]: 0
Plant response rating, Wheat [15, 20]: 2
Wheat plant response rating [15, 21]: 0
Wheat plant response rating [15, 22]: 0
Plant response rating (0 to 10; 0 is no effect, 10 is complete control), Wheat ([15]; Rate 250 g/ha, Postemergence): 0
Wild oats plant response rating [16, 17]: 0
Wild oats plant response rating [16, 19]: 0
Plant response rating, Wild oats [16, 20]: 5
Wild oats plant response rating [16, 21]: 0
Wild oats plant response rating [16, 22]: 0
Plant response rating (0 to 10; 0 is no effect, 10 is complete control), Wild oats ([16]; Rate 250 g/ha, Postemergence): 0
